25 compounds from patent US7977372B2, “Ortho aminoamides for the treatment of cancer” (Hoffmann-La Roche Inc., priority 2009, dated 2011) can be followed below.

Assay [1] has as its system histone deacetylase (HeLa nuclear extract). As to the kind of experiment: HeLa extract HDAC fluorometric assay. Type of assay: biochemical. As to conditions: compound at 30 micromolar; relative to SNDX-275. As for the experimental part: Novel compounds were tested for their ability to inhibit histone deacetylase using an in vitro deacetylation assay. The enzyme source for this assay was HeLa nuclear extract. The substrate consisted of a commercial product containing an acetylated lysine side chain (both HeLa extract and substrate are available commercially from BIOMOL Research Laboratories, Inc., Plymouth Meeting, Pa.). After deacetylation of the substrate by incubation with HeLa nuclear extract, subsequent exposure to a developing reagent produces a fluorophore that is directly proportional to the level of deacetylation. Using the substrate concentration at the Km for the HeLa nuclear extract, the deacetylation assay was performed in the presence of novel compounds at 30 micromolar and the percent enzyme inhibition relative to a known reference HDAC inhibitor (SNDX-275) was determined. […] Inhibitory activity for specific representative compounds can be found in Table 19.

For assay [2], the system named is SGC-7901 gastric cancer cells. As to the kind of experiment: Growth inhibition of cancer cell lines (MTS / WST assay), SGC-7901. Type of assay: cell-based. As to conditions: for IC90: read-out: SGC GI90. How it is done:
(§1) The novel compounds of the present invention were tested for their ability to inhibit growth of various cancer cell lines using in vitro growth inhibition assays described below.
(§2) Cells were seeded in 96-well culture plates (200 microliters/well at different seeding concentrations depending on cell type) and incubated overnight at 37 degrees Celsius in 5% CO2. After adding compound dilutions to the cells (DMSO concentration kept below 0.5%), the cells were incubated at 37 degrees Celsius in 5% CO2 for 72 hours. The effects on proliferation were determined by addition of MTS reagent (Promega) according to the manufacturer's instruction, followed by incubation for 2 hours at 37 degrees Celsius in 5% CO2, and finally recording the absorbance at 490 nm using an ELISA plate reader.
(§3) Similar to MTS assay except that the developer is the CCK-8 reagent (Dojindo) and the plate reader is set to 450 nm absorbance.
(§4) GI50 and GI90 values against SGC-7901 gastric cancer cells and SMMC-7721 liver cancer cells for specific representative compounds can be found in Table 19.

Assay [3] concerns SMMC-7721 liver cancer cells. As to the kind of experiment: Growth inhibition of cancer cell lines (MTS / WST assay), SMMC-7721. Type of assay: cell-based. To be noted: for IC90: read-out: SMMC GI90. How it is done:
as §1, §2, §3, §4

Usually GI50 stands for the concentration that inhibits growth by half. A low value points to more potent growth inhibition. `CC(C)N1CC(C(=O)Nc2ccc(F)cc2)C(c2ccc(/C=C/C(=O)Nc3ccccc3N)cc2)C1` (centres unmarked) [Example 16-15]: the “HD RP30 (relative inhibitory potency compared with SNDX-275)” value in assay [1] turned out to be 1.51. For the same compound, in assay [2] (Homo sapiens, SGC-7901, 72 h), growth was halved (GI50) at 0.29 µM and the IC90 is 1.24 µM. In assay [3] (Homo sapiens, SMMC-7721, 72 h), halving of growth (GI50) required 0.72 µM and the IC90 is 2.02 µM.
For `CN1CC(c2ccc(/C=C/C(=O)Nc3ccccc3N)cc2)C(c2nc3cc(F)ccc3[nH]2)C1` (centres unmarked) [Example 11-6] the same measures were 1.79, 0.35 µM, 1.08 µM, 0.92 µM and 3.04 µM.
For `Cc1cccc(NC(=O)C2CN(C)CC2c2ccc(/C=C/C(=O)Nc3ccccc3N)cc2)c1` (centres unmarked) [Example 5-28] the same measures were 1.70, 0.31 µM, 1.73 µM, 0.76 µM and 2.01 µM.
Regarding `COc1ccc(NC(=O)C2CN(C)CC2c2ccc(/C=C/C(=O)Nc3ccccc3N)cc2)cc1` (centres unmarked) [Example 5-33], the “HD RP30 (relative inhibitory potency compared with SNDX-275)” value in assay [1] stood at 1.49. In assay [2] (Homo sapiens, SGC-7901, 72 h), the GI50 came out at 0.42 µM and the IC90 is 1.62 µM. Also, in assay [3] (Homo sapiens, SMMC-7721, 72 h), halving of growth (GI50) required 0.87 µM and the IC90 worked out at 2.21 µM.
For `Cc1cc(NC(=O)C2CN(C)CC2c2ccc(/C=C/C(=O)Nc3ccccc3N)cc2)ccc1Cl` (centres unmarked) [Example 5-29] the same measures were 1.65, 0.32 µM, 1.04 µM, 0.64 µM and 1.39 µM.
For `CN1CC(C(=O)Nc2ccc(F)c(Cl)c2)C(c2ccc(/C=C/C(=O)Nc3ccccc3N)cc2)C1` (centres unmarked) [Example 5-30], the “HD RP30 (relative inhibitory potency compared with SNDX-275)” value in assay [1] was 1.97. In addition, in assay [2] (Homo sapiens, SGC-7901, 72 h), the 50% growth inhibitory concentration (GI50) was 0.34 µM and the IC90 amounted to 1.56 µM. Moreover, in assay [3] (Homo sapiens, SMMC-7721, 72 h), the GI50 worked out at 0.71 µM and the IC90 was found to be 2.34 µM.
Taken in the same sequence, the figures for `COCCN1CC(C(=O)Nc2ccc(Cl)cc2)C(c2ccc(/C=C/C(=O)Nc3ccccc3N)cc2)C1` (centres unmarked) [Example 21-15] were 1.47, 0.6 µM, 2.95 µM, 1.34 µM and 3.32 µM.
Consider `CC(C)(CO)N1CC(C(=O)Nc2ccc(Cl)cc2)C(c2ccc(/C=C/C(=O)Nc3ccccc3N)cc2)C1` (racemic) [Example 26, rac-(trans-3,4)-4-{4-[2-(2-Amino-phenylcarbamoyl)-vinyl]-phenyl}-1-(2-hydroxy-1,1-dimethyl-ethyl)-pyrrolidine-3-carboxylic acid (4-chloro-phenyl)-amide], for which the “HD RP30 (relative inhibitory potency compared with SNDX-275)” value in assay [1] is recorded as 1.38. Further, in assay [2] (Homo sapiens, SGC-7901, 72 h), it took 0.29 µM to inhibit growth by half (GI50) and the IC90 turned out to be 1.04 µM. In addition, in assay [3] (Homo sapiens, SMMC-7721, 72 h), the GI50 was 0.64 µM and the IC90 was 1.53 µM.
For `CN1CC(c2ccc(/C=C/C(=O)Nc3ccccc3N)cc2)C(c2nc3cc(Cl)ccc3[nH]2)C1` (centres unmarked) [Example 11-4] the same measures were 1.70, 0.37 µM, 1.71 µM, 0.64 µM and 1.81 µM.
For `CN1CC(C(=O)Nc2ccc(F)cc2)C(c2ccc(/C=C/C(=O)Nc3ccccc3N)cc2F)C1` (centres unmarked) [Example 85-4] the same measures were 1.84, 0.47 µM, 2.4 µM, 1.2 µM and 3.4 µM.
Consider `CN1C[C@@H](C(=O)Nc2ccc(F)cc2)[C@H](c2ccc(/C=C/C(=O)Nc3ccccc3N)cc2)C1` [Example 5-8], for which the “HD RP30 (relative inhibitory potency compared with SNDX-275)” value in assay [1] was 1.95. In assay [2] (Homo sapiens, SGC-7901, 72 h), the 50% growth inhibitory concentration (GI50) came to 0.31 µM and the IC90 is 1.14 µM. Besides, in assay [3] (Homo sapiens, SMMC-7721, 72 h), the concentration for 50% growth inhibition (GI50) is 0.78 µM and the IC90 is 3.96 µM.
For the compound `Nc1ccccc1NC(=O)/C=C/c1ccc(C2CN(C3CCOCC3)CC2C(=O)Nc2ccc(Cl)cc2)cc1` (centres unmarked) [Example 16-20], the “HD RP30 (relative inhibitory potency compared with SNDX-275)” value in assay [1] came out at 1.90. For the same compound, in assay [2] (72 hours), the 50% growth inhibitory concentration (GI50) stood at 0.45 µM and the “SGC GI90” value stood at 1.23 µM. In assay [3] (72 hours), the GI50 worked out at 0.83 µM and the “SMMC GI90” value is 2.96 µM.
In the case of `Cc1cc(NC(=O)C2CN(C)CC2c2ccc(/C=C/C(=O)Nc3ccccc3N)cc2)ccc1F` (centres unmarked) [Example 5-27], the “HD RP30 (relative inhibitory potency compared with SNDX-275)” value in assay [1] turned out to be 1.61. Besides, in assay [2] (Homo sapiens, SGC-7901, 72 h), the GI50 was 0.28 µM and the IC90 turned out to be 1.12 µM. Besides, in assay [3] (Homo sapiens, SMMC-7721, 72 h), halving of growth (GI50) required 0.57 µM and the IC90 amounted to 1.6 µM.
Taken in the same sequence, the figures for `CN1CC(c2ccc(/C=C/C(=O)Nc3ccccc3N)cc2)C(c2ncc(-c3ccccc3)[nH]2)C1` (centres unmarked) [Example 11-2] were 1.64, 0.42 µM, 1.99 µM, 0.7 µM and 1.69 µM.
For `CN1CC(C(=O)Nc2ccc(F)cc2)C(c2ccc(/C=C/C(=O)Nc3ccccc3N)nc2)C1` (centres unmarked) [Example 73-2], the “HD RP30 (relative inhibitory potency compared with SNDX-275)” value in assay [1] stood at 1.36. Further, in assay [2] (Homo sapiens, SGC-7901, 72 h), growth was halved (GI50) at 0.49 µM and the IC90 worked out at 2.01 µM. In addition, in assay [3] (Homo sapiens, SMMC-7721, 72 h), halving of growth (GI50) required 1.44 µM and the IC90 turned out to be 4.52 µM.
For `CC(C)N1CC(C(=O)Nc2ccc(Br)cc2)C(c2ccc(/C=C/C(=O)Nc3ccccc3N)cc2)C1` (centres unmarked) [Example 16-16], in assay [1], the “HD RP30 (relative inhibitory potency compared with SNDX-275)” value amounted to 2.03. Moreover, in assay [2] (Homo sapiens, SGC-7901, 72 h), the concentration for 50% growth inhibition (GI50) is 0.34 µM and the IC90 came out at 0.89 µM. Besides, in assay [3] (Homo sapiens, SMMC-7721, 72 h), the GI50 was 0.7 µM and the IC90 was determined as 1.62 µM.
Consider `CC(C)N1CC(C(=O)Nc2ccc(Cl)cc2)C(c2ccc(/C=C/C(=O)Nc3ccccc3N)cc2)C1` (centres unmarked) [Example 16-17], for which the “HD RP30 (relative inhibitory potency compared with SNDX-275)” value in assay [1] was 1.53. Also, in assay [2] (Homo sapiens, SGC-7901, 72 h), the 50% growth inhibitory concentration (GI50) is 0.44 µM and the IC90 was determined as 1.89 µM. For the same compound, in assay [3] (Homo sapiens, SMMC-7721, 72 h), the GI50 came out at 0.9 µM and the IC90 is 2.45 µM.
`CN1CC(C(=O)Nc2ccc(Br)cc2)C(c2ccc(/C=C/C(=O)Nc3ccccc3N)cc2)C1` (centres unmarked) [Example 5-20]: in assay [1], the “HD RP30 (relative inhibitory potency compared with SNDX-275)” value was 1.62. Also, the 50% growth inhibitory concentration (GI50) in assay [2] (Homo sapiens, SGC-7901, 72 h) is 0.5 µM; in assay [3] (Homo sapiens, SMMC-7721, 72 h) it was 0.77 µM. Moreover, the IC90 in assay [2] (Homo sapiens, SGC-7901, 72 h) was found to be 1.3 µM; in assay [3] (Homo sapiens, SMMC-7721, 72 h), 1.62 µM.
For `Cc1ccc(NC(=O)C2CN(C)CC2c2ccc(/C=C/C(=O)Nc3ccccc3N)cc2)cc1` (centres unmarked) [Example 5-19] the same measures were 1.63, 0.49 µM, 0.67 µM, 1.79 µM and 1.75 µM.
Take `CC(C)(O)CN1CC(C(=O)Nc2ccc(Cl)cc2)C(c2ccc(/C=C/C(=O)Nc3ccccc3N)cc2)C1` (centres unmarked) [Example 31-8]: the “HD RP30 (relative inhibitory potency compared with SNDX-275)” value in assay [1] is 1.48. In assay [2] (Homo sapiens, SGC-7901, 72 h), the 50% growth inhibitory concentration (GI50) was found to be 0.54 µM and the IC90 turned out to be 1.38 µM. Moreover, in assay [3] (Homo sapiens, SMMC-7721, 72 h), the GI50 amounted to 0.76 µM and the IC90 turned out to be 2.09 µM.
For `CC(C)(C)N1CC(C(=O)Nc2ccc(Cl)cc2)C(c2ccc(/C=C/C(=O)Nc3ccccc3N)cc2)C1` (racemic) [Example 36, rac-(trans-3,4)-4-{4-[2-(2-Amino-phenylcarbamoyl)-vinyl]-phenyl}-1-tert-butyl-pyrrolidine-3-carboxylic acid (4-chloro-phenyl)-amide] the same measures were 1.75, 0.49 µM, 1.53 µM, 0.96 µM and 3.29 µM.
As to `Nc1ccccc1NC(=O)/C=C/c1ccc(C2CN(C3CCOCC3)CC2C(=O)Nc2ccc(Cl)cc2)cc1` (centres unmarked) [Example 16-2], the “HD RP30 (relative inhibitory potency compared with SNDX-275)” value in assay [1] came out at 1.36. In assay [2] (Homo sapiens, SGC-7901, 72 h), the GI50 was found to be 0.41 µM and the IC90 was 1.17 µM. For the same compound, in assay [3] (Homo sapiens, SMMC-7721, 72 h), the GI50 is 0.75 µM and the IC90 was 1.87 µM.
For `CN1CC(c2ccc(/C=C/C(=O)Nc3ccccc3N)cc2)C(c2nc3ccccc3[nH]2)C1` (centres unmarked) [Example 11-3] the same measures were 1.62, 0.32 µM, 1.62 µM, 0.68 µM and 2.2 µM.
Turning to `CN1CC(C(=O)Nc2ccccc2)C(c2ccc(/C=C/C(=O)Nc3ccccc3N)cc2)C1` (centres unmarked) [Example 5-32], in assay [1], the “HD RP30 (relative inhibitory potency compared with SNDX-275)” value was found to be 1.58. In assay [2] (Homo sapiens, SGC-7901, 72 h), the GI50 is 0.41 µM and the IC90 was 2.04 µM. Moreover, in assay [3] (Homo sapiens, SMMC-7721, 72 h), halving of growth (GI50) required 0.71 µM and the IC90 stood at 2.42 µM.
With `CN1C[C@@H](C(=O)Nc2ccc(Cl)cc2)[C@H](c2ccc(/C=C/C(=O)Nc3ccccc3N)cc2)C1` [Example 5-2], in assay [1], the “HD RP30 (relative inhibitory potency compared with SNDX-275)” value was determined as 1.73. For the same compound, in assay [2] (Homo sapiens, SGC-7901, 72 h), the GI50 came to 0.38 µM and the IC90 is 1.13 µM. Moreover, in assay [3] (Homo sapiens, SMMC-7721, 72 h), growth was halved (GI50) at 0.66 µM and the IC90 is 1.98 µM.
